Assay results from patent publication US20210402211A1, “LIGHT-HYDROGEN THERAPY INCLUDING LIGHTING MODULE, LIGHTING APPARATUS, AND LIGHTING METHOD FOR PARKINSON'S DISEASE PATIENTS” (priority 2020, published 2021).

Test system: PD patients
Conditions: without light therapy, in a short time

[HH] [hydrogen, Molecular hydrogen]
effectiveness of hydrogen therapy alone: not that effective
